Structures can show the parent of a compound that is named as a salt.
Tests used:
Type in all cases: in vivo
[1] = tested on: photo-oxidative induced retinopathy; test: Rat photo-oxidative induced retinopathy model: electroretinogram (ERG)
[2] = tested on: photo-oxidative induced retinopathy; test: Rat photo-oxidative induced retinopathy model: retinal morphology
Description: (§1) Neuroprotective Effects in the Rat Photo-Oxidative Induced Retinopathy Model
(§2) Induction of Photochemical Lesion. Photochemical lesions were induced in dark adapted rats (24 hour) by exposure to (220 fc) blue light (half-amplitude bandpass=435-475 nm) for 6 hours. Animals were allowed to recover for 5 days in darkness prior to electrodiagnostic evaluation of retinal function. Rats were single housed in clear polycarbonate cages during this light exposure.
Assessment of Retinal Morphology. Ocular tissues were obtained from control and drug or vehicle dosed rats and fixed by immersion into a mixture of 2% paraformaldehyde and 2% glutaraldehyde. Fixed eyeballs were dehydrated in an ascending ethanol series, embedded in JB-4 plastic resin, and 1 to 1.5-micron thick sections were analyzed using a quantitative computer image analysis system attached to the microscope. Retinal layer thickness (retinal pigment epithelium, RPE; outer nuclear layer thickness, ONL; inner nuclear layer thickness, INL; and length of photoreceptor inner and outer segments, IS+OS) was measured.
(§3) Subjects and Dosing. Male Sprague Dawley rats were randomly assigned to drug and vehicle experimental groups. Control rats were housed in their home cage under normal cyclic light exposure. All rats were dosed 48, 24 and 0 hours prior to a 6-hour blue-light exposure. Dosing was as follows:
(§4) Five rats were used as controls. Retinal protection was assessed by analyzing the ERG response and measuring changes in retinal morphology.
2.) Buspirone: For DNA quantitation, six rats per treatment group were dosed IP with vehicle or buspirone (0.5 and 1 mg/kg) prior to light exposure. Retinas from seven normal rats were used as controls. To evaluate changes in retinal morphology, rats were dosed (IP) with either vehicle (N=8) or buspirone (1.0 mg/kg [N=9]). Six rats were used as controls. Retinal protection was assessed by quantitating changes in retinal DNA and measuring changes in retinal morphology.

[3] = tested on: light-induced functional or morphological changes; test: Light damage paradigms (comparison compound classes)
[4] = tested on: photo-oxidative induced retinopathy; test: Rat photo-oxidative induced retinopathy model: electroretinogram (ERG); remark: listed apart in the source
Description: as §1
The retinal protective effect of these 5-HT1A agonists were evaluated in our photo-oxidative induced retinopathy paradigm.
as §2
Electrodiagnostic Evaluation. The electroretinogram (ERG) was recorded from anesthetized rats after a 24-hour dark-adaptation period. Rats were anesthetized by IP injection with Ketamine-HCl (75 mg/Kg) and Xylazine (6 mg/Kg). Flash ERGs recorded from a platinum-iridium wire loop electrode positioned on the cornea were elicited by viewing a ganzfeld. Electrical responses to a series of light flashes increasing in intensity were digitized to analyze temporal characteristics of the waveform and response voltage-log intensity (VlogI) relationship. Changes in the ERG a-wave are associated with photoreceptor and retinal pigment epithelium damage while damage to the inner retina is reflected in changes in the ERG b-wave.
as §3, §4
3.) SR-57746A: Rats were dosed (IP) with vehicle (N=15) or SR-57746A (0.5 mg/kg [N=5] or 1 mg/kg [N=15]). Eleven rats were used as controls. The ERG was analyzed after a 5-day recovery period to assess retinal protection.

[5] = tested on: photo-oxidative induced retinopathy; test: Rat photo-oxidative induced retinopathy model: retinal DNA quantitation
Description: as §1, §2
Assessment of DNA Changes. Albino rats were euthanized by CO2 inhalation and individual retinas were frozen in separate tubes. Each retina had been sonicated in 0.8 ml (2.0 M NaCl, 50 mM NaPO4, pH 7.4, 2 mM EDTA) to yield a uniform homogenate, and stored frozen. Aliquots (0.1 ml) of each sample were diluted 10-fold with 2.0 M NaCl, 50 mM NaPO4. pH 7.4, 2 mM EDTA containing 1.1 μg/ml bisbenzimidazole (Hoechst 33258). A standard curve was constructed using calf thymus DNA from 0 to 25 μg/ml in the same buffer. Triplicate 0.2 ml aliquots of each retina sample and standard were pipetted into a 96 well plate for fluorescence measurements in the Cytofluor II. […]
2.) Buspirone: For DNA quantitation, six rats per treatment group were dosed IP with vehicle or buspirone (0.5 and 1 mg/kg) prior to light exposure. […] Retinal protection was assessed by quantitating changes in retinal DNA and measuring changes in retinal morphology.

[6] = 0.5 mg/kg SC 48, 24 and 0 h before 6-h blue light, 5-day recovery
[7] = 1.0 mg/kg SC 48, 24 and 0 h before 6-h blue light, 5-day recovery

CCCN(CCC)C1CCc2cccc(O)c2C1 (stereo not shown) [8-OH-DPAT, 8-hydroxy-2-(di-n-propylamino)tetralin]
Maximum a- and b-wave response amplitudes versus vehicle dosed rats [1, 6]: not different than vehicle dosed rats | Maximum a- and b-wave response amplitudes, % of control amplitudes [1, 6]: approximately 27% | ERG reduction ([1]; 0.5 mg/kg SC, as restated with the morphometry): approximately 63% | Maximum a- and b-wave response amplitudes versus vehicle dosed rats [1, 7]: significantly higher than responses measured in vehicle dosed rats | Maximum a-wave response amplitude, % of normal [1, 7]: approximately 53% | Maximum b-wave response amplitude, % of normal [1, 7]: ~61% | ERG response amplitudes, % of normal ([1]; 1.0 mg/kg SC, as restated with the morphometry): greater than 50% | Lesions versus vehicle dosed rats ([2]; 0.5 mg/kg SC, 3-week recovery): not significantly different than lesions measured in vehicle dosed rats | ONL thickness reduction ([2]; 0.5 mg/kg SC, 3-week recovery): 53% | Photoreceptor segment length reduction ([2]; 0.5 mg/kg SC, 3-week recovery): 60% | RPE thickness reduction ([2]; 0.5 mg/kg SC, 3-week recovery): 34% | ONL thickness compared to vehicle dosed rats ([2]; 1.0 mg/kg SC, 3-week recovery): 2.4 fold | Photic lesions versus vehicle dosed rats ([2]; 1.0 mg/kg SC, 3-week recovery): significantly different from vehicle dosed rats | Photoreceptor segment length compared to vehicle dosed rats ([2]; 1.0 mg/kg SC, 3-week recovery): 2.9 times | RPE thickness compared to vehicle dosed rats ([2]; 1.0 mg/kg SC, 3-week recovery): 1.9 times

COCCOC(=O)C1=C(C)NC(C)=C(C(=O)OC(C)C)C1c1cccc([N+](=O)[O-])c1 (stereo not shown) [nimodipine]
Effect in preventing light-induced functional or morphological changes [3]: no effect

FC(F)(F)c1cccc(C2=CCN(CCc3ccc4ccccc4c3)CC2)c1 [SR-57746A, xaliproden hydrochloride]
Maximum a- and b-wave responses, % of controls ([4]; 0.5 mg/kg IP, 5-day recovery): 82% | Maximum a- and b-wave responses, % of normal ([4]; 1 mg/kg IP, 5-day recovery): 70% | Protection of retinal function ([4]; 0.5 and 1.0 mg/kg IP, light-exposed rats): Significant protection of retinal function

Fc1ccc(C(c2ccc(F)cc2)N2CCN(C/C=C/c3ccccc3)CC2)cc1 [flunarizine]
Effect in preventing light-induced functional or morphological changes [3]: moderately effective

O=C1CC2(CCCC2)CC(=O)N1CCCCN1CCN(c2ncccn2)CC1 [buspirone]
Retinal DNA levels versus vehicle ([5]; 0.1 mg/kg IP): No significant differences | Retinal DNA levels versus vehicle and controls ([5]; 1 mg/kg IP): significantly higher than measured in vehicle dosed rats, but not significantly different than controls | ONL thickness ([2]; 1 mg/kg IP, 4-week recovery): 28.3 μ | ONL thickness versus normal rats ([2]; 1 mg/kg IP, 4-week recovery): no significant difference in ONL thickness

Cc1c(C)c2c(c(C)c1O)CC[C@@](C)(CCC[C@H](C)CCC[C@H](C)CCCC(C)C)O2 [α-tocopherol]
Effect in preventing light-induced functional or morphological changes [3]: ineffective
